Reference: patent US20240254109A1, “SALT CONTAINING PIPERAZINE POLYCYCLIC DERIVATIVE, CRYSTAL FORM THEREOF, PREPARATION METHOD THEREFOR, AND USE THEREOF” (Shanghai Hansoh Biomedical Co., Ltd., priority 2021, published 2024)

How the values were obtained:
Format in all cases: physicochemical
[1] = Study on the crystal form of salt of compound (crystallization with counter ion acids); conditions: for Phenomenon after the addition of acid / Results: volatilization method; for Phenomenon after the addition of acid: crystal form B of free base in tetrahydrofuran, base: acid=1:1.2; for Results: tetrahydrofuran volatilized at room temperature; for Phenomenon: base: acid=1:1.2, 25° C.
Procedure: To identify which counter ion acids can form crystal form of salt of compound by selecting different counter ion acids according to suitable crystallization methods.
1 mL of the solution was taken into a glass bottle, and different counter ion acids (molar reaction ratio of base: acid=1:1.2) were added, and then the glass bottle was opened at room temperature to volatile solvent. The amorphous or oily was pulped with 200 μL of ethyl acetate.
1) 10 mg of crystal form B of free base was weighed, and 200 μL of methanol solvent was added, and counter ion acid (molar reaction ratio of base: acid=1:1.2) was added respectively at 25° C.
2) 85 mg of crystal form B of free base was weighed, and ethyl acetate was added to produce a clear solution. Different counter ion acids (molar reaction ratio of base: acid=1:1.2) were added respectively at 25° C.

[2] = Study on the salt form of compound (salt forming with counter ion acids); conditions: for Phenomenon after the addition of acid: acid 1:1.2, room temperature
Procedure: To identify which counter ion acids can form salts with the compound by selecting different counter ion acids.
10 mg of free base was weighed. 200 μL of tetrahydrofuran was added. Different counter ion acids were added separately at room temperature, and the solvent was volatilized to dry. If a solid was precipitated during the reaction, the suspension was centrifuged, and the resulting solid was vacuum dried at 50° C. […] The resulting suspension was centrifuged and the supernatant was removed. The solid was dried in vacuum at 50° C.
10 mg of free base was weighed, and 200 μL of acetone was added. Different counter ion acids were added separately at room temperature, and the solvent was volatilized to dry. If a solid was precipitated, the resulting solid was dried in vacuum overnight at 50° C. […] The resulting suspension was centrifuged, and the supernatant was removed. The solid was dried in vacuum at 50° C.
10 mg of free base compound was weighed, and 100 μL of organic solvent was added to the suspension state. The corresponding acid was added according to the molar ratio of 1:1.2 at room temperature, and the reaction was stirred for 4d. The reaction was centrifuged, and the resulting solid was dried in vacuum at 50° C.

[3] = Stability study of salt (5 days and 10 days, HPLC related substances)
Procedure: 2.1.3 Stability Study of Salt
Hydrochloride and p-toluenesulfonate of N-(trans-3-(2-(4-(2,3-dichlorophenyl)piperazin-1-yl)ethyl)cyclobutyl)oxazole-2-carboxamide were weighed about 1 mg, respectively, and then placed under light (5000 lux), high temperature (60° C.), high humidity (92.50 RH), high temperature and high humidity (50° C. and 75% RH) for 5 days and 10 days, then a diluent DMSO was added to prepare a solution with salt concentration of about 1 mg/mL.
The chromatographic peak area normalization method was used to calculate the changes of related substances.

[4] = Hygroscopicity study of salt (DVS)
Excerpt: 2.1.4 Hygroscopicity Study of Salt
The hygroscopicity of a drug refers to the characteristics of the drug's ability or degree of water absorption at a certain temperature and humidity. […] (DVS) was used to characterize the ability of drugs to absorb water under different humidity conditions. The instrument parameters are detailed in the table below.

[5] = Solubility of hydrochloride in different media; conditions: 37° C.
Procedure: 2.1.5 Solubility of Hydrochloride in Different Media
1.0 mg of compound was weighed into a 2 mL glass bottle, then 1 mL of dissolving medium was added respectively. The glass bottle was shaken overnight on an electrothermal constant temperature shaking tank, and the temperature was set to 37° C. After 24 hours, the sample solution was filtered with a […] mixed water fiber filter membrane, and the subsequent filtrate was taken to test its content by HPLC. HPLC detection methods are described in “Stability Study Conditions”.

[6] = Crystal form stability study of hydrochloride for 30 days
Procedure: 9. Crystal Form Stability Study of Hydrochloride for 30 Days
The 30 days stability of hydrochloride of N-(trans-3-(2-(4-(2,3-dichlorophenyl)piperazin-1-yl)ethyl)cyclobutyl)oxazole-2-carboxamide under four conditions of 60° C. (closed), 40° C. & RH 75% (open), 25° C./RH 92.5% (open) and light (5000±500 Lux) was detected, which provided scientific basis for the production, packaging, storage and transportation conditions of drugs.
The diluent 80% methanol solution was added to prepare a solution containing about 0.5 mg/mL hydrochloride. The mixture was sonicated for 30 min to produce a clear solution. 1 mL of the solution was filtered and measured by HPLC. See “2.3.4” for the HPLC analysis method. The content of related substances was calculated according to the peak area normalization method, and the results are shown in Table 32 below.

[7] = free base suspended in 100 μL Isopropanol
[8] = free base suspended in 100 μL Isopropanol, acid 1:1.2, stirred 4d
[9] = GWGS-5 d (high temperature and high humidity)
[10] = GWGS-10 d (high temperature and high humidity)
[11] = high temperature, light, high humidity, high temperature and high humidity, 5 and 10 days
[12] = WS-30 d (high temperature and high humidity)

With `CC(=O)O` [1.0M acetic acid (in methanol)] the “Phenomenon after the addition of acid” value [1] was “Clear” and the Results [1] was “Oil or gel”.
With `Br` [1.0M hydrobromic acid (in methanol)] the “Phenomenon after the addition of acid” value [1] was “Clear” and the Results [1] was “Oil or gel”.
With `Cl` [1.0M hydrochloric acid (in methanol)] the Phenomenon ([1]; solvent 2-Butanone) was “Clear”, the Phenomenon ([1]; solvent 2-Methyl-tetrahydrofuran) was “Suspension” and the Phenomenon ([1]; solvent Acetone) was “Suspension”. For the same compound, the Phenomenon ([1]; solvent Ethanol) was “Clear”, the Phenomenon ([1]; solvent Ethyl acetate) was “Suspension” and the Phenomenon ([1]; solvent Ethyl formate) was “Precipitation”. For the same compound, the Phenomenon ([1]; solvent Isopropanol) was “Suspension”, the Phenomenon ([1]; solvent Isopropyl acetate) was “Suspension” and the Phenomenon ([1]; solvent Methyl tert-butyl ether) was “Suspension”. For the same compound, the “Phenomenon after the addition of acid” value [1] was “Clear” and the Results [1] was “Oil or gel”.
In the case of `CS(=O)(=O)O` [1.0M methanesulfonic acid (in ethanol)], the “Phenomenon after the addition of acid” value [1] is reported as “Clear” and the Results [1] is reported as “Oil or gel”.
For `CC(=O)O` [1M acetic acid in methanol], the Phenomenon ([1]; solvent Isopropanol) was “Turbid” and the Phenomenon ([1]; solvent Isopropyl ether) was “Turbid”.
With `CC(=O)O` [Acetic acid] the “Phenomenon after the addition of acid” value [2, 7] was “muddy” and the Product [2, 8] was “Salt forming”.
In the case of `O=C(O)/C=C/C(=O)O` [Fumaric acid], the “Phenomenon after the addition of acid” value [2, 7] is reported as “muddy” and the Product [2, 8] is reported as “Salt forming”.
For `CS(=O)(=O)O` [Methanesulfonic acid (1 mol/L in EtOH)], the Product ([2]; acetone volatilized to dry) was “Gel” and the “After adding 200 μL of ethyl acetate” value ([2]; stirred 4 hours at room temperature) was “Gel”.
With `Cl.O=C(N[C@H]1C[C@H](CCN2CCN(c3cccc(Cl)c3Cl)CC2)C1)c1ncco1` [N-(trans-3-(2-(4-(2,3-dichlorophenyl)piperazin-1-yl)ethyl)cyclobutyl)oxazole-2-carboxamide hydrochloride] the “RRT 1.000 Area %” value ([3]; 0 d) was 99.619%, the “RRT 1.050 Area %” value ([3]; 0 d) was 0.153% and the “RRT 1.200 Area %” value ([3]; 0 d) was 0.163%. The “RRT 1.550 Area %” value ([3]; 0 d) was 0.065%, the “total Area % (related substances)” value ([3]; 0 d) was 0.381% and the “RRT 0.220 Area %” value ([3]; GS-5 d (high humidity)) was 0.055%. The “RRT 1.000 Area %” value ([3]; GS-5 d (high humidity)) was 99.556%, the “RRT 1.050 Area %” value ([3]; GS-5 d (high humidity)) was 0.160% and the “RRT 1.200 Area %” value ([3]; GS-5 d (high humidity)) was 0.161%. For the same compound, the “RRT 1.550 Area %” value ([3]; GS-5 d (high humidity)) was 0.069%, the “total Area % (related substances)” value ([3]; GS-5 d (high humidity)) was 0.444% and the “RRT 1.000 Area %” value ([3]; GS-10 d (high humidity)) was 99.619%. The “RRT 1.050 Area %” value ([3]; GS-10 d (high humidity)) was 0.153%, the “RRT 1.200 Area %” value ([3]; GS-10 d (high humidity)) was 0.163% and the “RRT 1.550 Area %” value ([3]; GS-10 d (high humidity)) was 0.065%. The “total Area % (related substances)” value ([3]; GS-10 d (high humidity)) was 0.381%, the “RRT 1.000 Area %” value ([3]; GW-5 d (high temperature)) was 99.604% and the “RRT 1.050 Area %” value ([3]; GW-5 d (high temperature)) was 0.164%. The “RRT 1.200 Area %” value ([3]; GW-5 d (high temperature)) was 0.163%, the “RRT 1.550 Area %” value ([3]; GW-5 d (high temperature)) was 0.068% and the “total Area % (related substances)” value ([3]; GW-5 d (high temperature)) was 0.396%. For the same compound, the “RRT 1.000 Area %” value ([3]; GW-10 d (high temperature)) was 99.590%, the “RRT 1.050 Area %” value ([3]; GW-10 d (high temperature)) was 0.170% and the “RRT 1.200 Area %” value ([3]; GW-10 d (high temperature)) was 0.163%. The “RRT 1.550 Area %” value ([3]; GW-10 d (high temperature)) was 0.077%, the “total Area % (related substances)” value ([3]; GW-10 d (high temperature)) was 0.410% and the “RRT 1.000 Area %” value [3, 9] was 99.603%. For the same compound, the “RRT 1.050 Area %” value [3, 9] was 0.144%, the “RRT 1.200 Area %” value [3, 9] was 0.165% and the “RRT 1.550 Area %” value [3, 9] was 0.088%. The “total Area % (related substances)” value [3, 9] was 0.397%, the “RRT 1.000 Area %” value [3, 10] was 99.614% and the “RRT 1.050 Area %” value [3, 10] was 0.157%. For the same compound, the “RRT 1.200 Area %” value [3, 10] was 0.161%, the “RRT 1.550 Area %” value [3, 10] was 0.067% and the “total Area % (related substances)” value [3, 10] was 0.386%. For the same compound, the “RRT 1.000 Area %” value ([3]; GZ-5 d (light)) was 99.617%, the “RRT 1.050 Area %” value ([3]; GZ-5 d (light)) was 0.148% and the “RRT 1.200 Area %” value ([3]; GZ-5 d (light)) was 0.160%. The “RRT 1.550 Area %” value ([3]; GZ-5 d (light)) was 0.075%, the “total Area % (related substances)” value ([3]; GZ-5 d (light)) was 0.383% and the “RRT 1.000 Area %” value ([3]; GZ-10 d (light)) was 99.604%. For the same compound, the “RRT 1.050 Area %” value ([3]; GZ-10 d (light)) was 0.162%, the “RRT 1.200 Area %” value ([3]; GZ-10 d (light)) was 0.158% and the “RRT 1.550 Area %” value ([3]; GZ-10 d (light)) was 0.077%. For the same compound, the “total Area % (related substances)” value ([3]; GZ-10 d (light)) was 0.396%, the growth of impurities [3, 11] was “no significant growth of impurities” and the stability of salt [3, 11] was “good stability”. For the same compound, the “hygroscopicity (DVS)” value [4] was “slightly hygroscopic”, the “solubility in different pH buffers (dependence)” value ([5]; 24 hours) was “pH-dependent” and the solubility ([5]; acidic conditions) was “better solubility”. For the same compound, the solubility ([5]; neutral or alkaline conditions) was “poor solubility”, the “solubility in water compared with free base” value ([5]; water) was “greatly improved” and the “RRT 1.00 Area %” value ([6]; 0 d) was 99.44%. For the same compound, the “RRT 1.07 Area %” value ([6]; 0 d) was 0.07%, the “RRT 1.93 Area %” value ([6]; 0 d) was 0.42% and the “RRT 2.43 Area %” value ([6]; 0 d) was 0.07%. For the same compound, the “RRT 1.00 Area %” value ([6]; GS-30 d (high humidity)) was 99.43%, the “RRT 1.07 Area %” value ([6]; GS-30 d (high humidity)) was 0.11% and the “RRT 1.93 Area %” value ([6]; GS-30 d (high humidity)) was 0.39%. For the same compound, the “RRT 2.43 Area %” value ([6]; GS-30 d (high humidity)) was 0.07%, the “RRT 1.00 Area %” value ([6]; GW-30 d (high temperature)) was 99.51% and the “RRT 1.07 Area %” value ([6]; GW-30 d (high temperature)) was 0.08%. For the same compound, the “RRT 1.93 Area %” value ([6]; GW-30 d (high temperature)) was 0.41%, the “RRT 1.00 Area %” value ([6]; GZ-30 d (light)) was 99.43% and the “RRT 1.07 Area %” value ([6]; GZ-30 d (light)) was 0.09%. The “RRT 1.93 Area %” value ([6]; GZ-30 d (light)) was 0.41%, the “RRT 2.43 Area %” value ([6]; GZ-30 d (light)) was 0.08% and the “RRT 1.00 Area %” value [6, 12] was 99.46%. The “RRT 1.07 Area %” value [6, 12] was 0.09%, the “RRT 1.93 Area %” value [6, 12] was 0.38% and the “RRT 2.43 Area %” value [6, 12] was 0.07%.
